Reference: US10023841B2, “Methods and compositions for treating breast cancer with dendritic cell vaccines” (Baylor Research Institute, priority 2014, dated 2018)
The star is where a group is joined. Cbz = O=C(OCc1ccccc1)*; CH2F = FC*

How the values were obtained:
[1] = tested on: HS-578t or MDA-MB231 cells; experiment: TSLP induction in breast cancer cell lines by cytokines (real-time PCR, Luminex); assay type: cell-based, human; conditions: for TSLP mRNA level by quantitative real-time PCR: HS-578t and MDA-MB231 cells, 10 ng/ml, as early as 2 hours
Procedure: […] For tumor cells and mDCs coculture experiment, 100 k tumor cells were seeded in 24 well plate to grow overnight, then media was refreshed and 100 k mDCs were added to coculture for another 24-72 h. For the transwell experiment, 24-well-plate with inserts were used (Corning). 200K tumor cells were seeded in the plate to grow at least overnight, then 200 k mDCs were added into inserts. After 48 h of co-culture, supernantants were harvested to determine IL-1β level by ELISA (Duoset, R&D System).
Samples were treated and lysed with Buffer RLT, and then stored at −80° C. until RNA extraction. Total RNA was isolated and purified from each sample by using RNeasy kit and RNase-free DNase (Qiagen) according to the manufacturer's instructions. cDNA was generated from total RNA with iScript™ cDNA Synthesis Kit. The resulting cDNA was then used for quantitative gene expression analysis on a Sequence Detection System 7,500 (Applied Biosystems). The primers used were as follows: human (h)TSLP, 5′-[…]-3′ (SEQ ID NO:41) and 5′-[…]-3 (SEQ ID NO:42), and human (h)IL-1β, 5′-[…]-3′ (SEQ ID NO:43) and 5′-[…]-3′ (SEQ ID NO:44), human (h) GAPDH, 5′-[…]-3′ (SEQ ID NO:45) and 5′-[…]-3′ (SEQ ID NO:46), human (h) ABL1, 5′-[…]-3′ (SEQ ID NO:47) and 5′ […]-3′ (SEQ ID NO:48), human (h) PGK1, 5′-[…]-3′ (SEQ ID NO:49) and 5′-[…]-3′ (SEQ ID NO:50), human (h) PES1, 5′-[…]-3′ (SEQ ID NO:51) and 5′-A […]-3′ (SEQ ID NO:52). Equal amounts of cDNA were used with the iTaq SYBR Green Supermix with ROX (Bio-Rad) and primer mix according to the real-time PCR protocols supplied by the manufacturer. Amplification efficiencies were validated against the housekeeping gene, GAPDH, PES1, and ABL1. […] The relative quantification of target gene expression was done by the comparative cycle threshold (CT) method. […]
Different pro-inflammatory cytokines have the potential to induce TSLP from keratinocytes, both transcriptionally and translationally. […] Cells were harvested and TSLP mRNA levels were measured by quantitative real-time PCR (FIG. 4A). […] TSLP levels in the culture supernatants were determined by Luminex. […]

[2] = target: T1, TAK1 (Homo sapiens, UniProt O43318); experiment: Caspase-1 activity (FACS) in monocytes treated with cancer-culture sups; assay type: cell-based; conditions: monocytes treated with cancer-culture sups 16 hours; 200 nm TAK1 inhibitor
T1 construct: endogenous in cells; host or cells: human blood monocytes, monocyte-derived DCs and blood mDCs
T1 sequence (O43318 1-606): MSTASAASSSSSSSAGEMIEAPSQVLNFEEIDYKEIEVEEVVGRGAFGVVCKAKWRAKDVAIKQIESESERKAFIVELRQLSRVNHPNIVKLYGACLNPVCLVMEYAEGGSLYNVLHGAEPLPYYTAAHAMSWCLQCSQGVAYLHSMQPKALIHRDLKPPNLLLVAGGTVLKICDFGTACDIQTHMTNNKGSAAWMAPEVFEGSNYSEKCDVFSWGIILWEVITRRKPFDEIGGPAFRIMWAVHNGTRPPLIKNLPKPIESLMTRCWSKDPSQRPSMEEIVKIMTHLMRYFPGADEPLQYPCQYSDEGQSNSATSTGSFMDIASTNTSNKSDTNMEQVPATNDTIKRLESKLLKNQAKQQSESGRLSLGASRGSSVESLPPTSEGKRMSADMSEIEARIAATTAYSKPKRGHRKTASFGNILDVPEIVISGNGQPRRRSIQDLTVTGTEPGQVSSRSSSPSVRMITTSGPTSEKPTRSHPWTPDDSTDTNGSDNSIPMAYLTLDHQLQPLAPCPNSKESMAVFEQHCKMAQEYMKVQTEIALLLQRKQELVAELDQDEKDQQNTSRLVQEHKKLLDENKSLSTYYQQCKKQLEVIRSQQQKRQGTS
Procedure: For surface staining, cells were incubated with the antibodies for 30 minutes at 4° C. in the dark, then washed three times and fixed with 1% paraformaldehyde to be analyzed in a FACS Canto (Becton Dickinson). […] For caspase-1 staining, cells were incubated with substrates (CaspaLux-E1D2, Oncolmmunin, Inc.) for 50 minutes at 37° C. and washed with washing buffer 2 times, then stained for surface markers for 10 minutes at room temperature.
Monocytes were treated with cancer-culture sups for 16 hours in the presence of a TAK1 specific inhibitor or DMSO as control. Caspase-1 activity was measured using the FACS based method. Cells were gated based on CD11c^+ viable cells.

[3] = target: T1, TAK1; experiment: IL-1β in co-culture of cancer cells and myeloid cells upon TAK1 inhibition; assay type: cell-based
Procedure: When mDCs were co-cultured with MDA-MB231 cells for 5-90 minutes, phosphorylated (p)TAK1 could only be detected after 60 minutes (FIG. 7D). To confirm that the phosphorylation of TAK1 is TGF-β mediated, TGF-β signaling blocking reagents (TGF-β neutralizing antibody and TGF-βR kinase inhibitor) were added to the co-culture of cancer cells and mDCs. […] To examine whether TAK1-signaling participate in modulation of IL-1β production, a co-culture of cancer cells and myeloid cells was used. […]

[4] = target: T2, caspase-1 (Homo sapiens, UniProt P29466); experiment: MDA-MB231/mDC co-culture with caspase-1 inhibitor: proIL-1β and mature IL-1β staining; assay type: cell-based
T2 construct: MDA-MB231 cells and mDCs were co-cultured in chamber well; endogenous in cells; host or cells: human blood mDCs co-cultured with MDA-MB231 cells
T2 sequence (P29466 120-297 limits assumed): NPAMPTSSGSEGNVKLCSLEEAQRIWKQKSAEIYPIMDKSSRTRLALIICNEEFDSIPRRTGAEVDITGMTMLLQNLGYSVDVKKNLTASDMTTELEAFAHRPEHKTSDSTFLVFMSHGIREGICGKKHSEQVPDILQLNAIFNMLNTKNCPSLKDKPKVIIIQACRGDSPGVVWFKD
T2 sequence (P29466 317-404 limits assumed): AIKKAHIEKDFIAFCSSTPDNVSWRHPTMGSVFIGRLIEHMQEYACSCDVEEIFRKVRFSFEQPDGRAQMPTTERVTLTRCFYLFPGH
Procedure: In most cases, caspase-1 is needed for proteolytic cleavage and secretion of mature IL-1β. It was tested whether TGF-β-dependent IL-1β production also required the activation of caspase-1. MDA-MB231 cells and mDCs were co-cultured in chamber well in presence of 1 uM of caspase-1 inhibitor or DMSO as vehicle control. 18 hours later, cells were fixed and stained with specific antibody against pro-peptide of IL-1β (FIG. 7A), or mature IL-1β (FIG. 7B), both accompanied with HLA-DR staining. […] Four areas were counted for the percentage of proIL-1β^+ cells within HLA-DR^+ cells for both DMSO or caspase-1 inhibitor treated wells. Almost 95% of mDCs show accumulation of proIL-1β intracellularly, while only around 50% of mDCs express proIL-1β (FIG. 7A right panel). Using a similar experimental system, mature IL-1β production in presence or absence of caspase-1 inhibitor was also measured.

[5] = tested on: CD4^+CD3^+T cells; experiment: Intracellular cytokine FACS of CD4+CD3+ T cells from xenograft tumors; assay type: in vivo, mice
Procedure: (§1) NOD/SCID/β2 m^−/− mice ([…]) were sublethally irradiated (12 cGy/g body weight of 137Cs γ irradiation) the day before tumor implantation. Then 10 million Hs-578t breast cancer cells harvested from cultures were injected subcutaneously into the flanks. Mice were then reconstituted with 1 million monocyte-derived DCs (MDDCs) and autologous T cells. CD4^+ and CD8^+ T cells were positively selected from thawed PBMCs using magnetic selection according to the manufacturer's instructions (Miltenyi Biotec). The purity was routinely >90%. 10 million CD4^+ T cells and 10 million CD8^+ T cells were transferred at days 3, 6, and 9 after tumor implantation. MDDCs were generated from the adherent fraction of PBMCs by culturing with 100 ng/ml GM-CSF and 10 ng/ml IL-4 (R&D Systems). Anakinra (2 mg/kg body weight) or PBS were injected daily in peritumor area since day 3 after tumor engraftment. 200 ug TSLPR blocking antibody was given on day 3,6,9. In some experiments, TGF-13 blocking antibody was given on day 3,6,9. Tumor size was monitored every 2-3 d. Tumor volume (ellipsoid) was calculated as follows: ([short diameter]^2×long diameter)/2. On day 16, the tumors were harvested. In some experiments, only one time DCs and total T cells transfer was done. Cell suspension was obtained from breast cancer tissue of above mice. Cell suspensions were obtained by digestion with 2.5 mg/ml of collagenase D (Roche Diagnostics, Indianapolis, Ind.), and 200 U/ml of DNAse I (Sigma-Aldrich, St. Louis, Mo.) for 30 minutes at 37° C. Washed three times and analyzed with FACS-CantoII (Becton Dickinson).
To confirm whether the decreased IL-13 level is due to less infiltration of IL-13 producing cells, single cell suspensions were prepared from the tumors harvested from both the PBS and the Anakinra treatment groups. Intracellular staining for cytokines including IL-13, IL-4, TNF-α, and IFN-γ were combined with CD4, CD3 surface staining. Cells were analyzed by FACS, and gated on viable CD4^+CD3^+T cells. […] In the PBS group, about 10.2-46.4% of CD4^+CD3^+T cells express IL-13. […]

[6] = tested on: Hs-578t breast cancer cells; experiment: Tumor growth of Hs-578t xenograft in irradiated NOD/SCID/β2m−/− mice reconstituted with DCs and T cells; assay type: in vivo
Procedure: as §1
Thus, involvement of IL-1β in the TSLP-dependent in vivo model was evaluated. The availability of IL-1β in the xenograft mice model was first evaluated. HS-578t cells were injected subcutaneously into the flank of irradiated NOD/SCID/β2 m^−/− mice. MDDCs plus autologous total T cells were injected intratumorally on D3,6, and 9 after tumor cells injection (FIG. 15A). When tumors grew to 100-150 mm^3 in volume, mice were sacrificed and tumors were frozen in OCT for tissue staining. Similar with what observed in patient primary tumors (FIG. 5), IL-1β^+ cells also infiltrated in the tumor of xenograft model (FIG. 15B). […] Then we tried to understand whether TGF-β or IL-1β blocking could affect tumor growth through affecting the availability of IL-1β. Anti-TGF-β neutralizing antibody, isotype antibody as control, IL-1R antagonist Anakinra, or anti-TSLPR neutralizing antibody were each injected together with DC plus T cells (FIG. 15A). […] In some experiments, small pieces of tumor tissue from mice were cultured for 16 hours in the presence of PMA and ionomycin. Th2 cytokines were measured by Luminex in the culture sups (FIG. 8B).

[7] = pediatric patients with SOJIA; cited from earlier work
[8] = 100 mg daily SC; cited from earlier work
[9] = tested on: Th2 cytokines; experiment: Cytokines by Luminex in supernatants of day 16 mouse tumor fragments stimulated with PMA and ionomycin; assay type: in vivo, mice; conditions: day 16 tumors; versus PBS group
Procedure: as §1
Thus, involvement of IL-1β in the TSLP-dependent in vivo model was evaluated. The availability of IL-1β in the xenograft mice model was first evaluated. HS-578t cells were injected subcutaneously into the flank of irradiated NOD/SCID/β2 m^−/− mice. MDDCs plus autologous total T cells were injected intratumorally on D3,6, and 9 after tumor cells injection (FIG. 15A). […] Th2 cytokines were measured by Luminex in the culture sups (FIG. 8B).

[10] = tumors harvested from Anakinra treatment group
[11] = xenograft model, summary statement

Which results are given for IL-1β: cytokine obtained from R&D?
TSLP mRNA level by quantitative real-time PCR [1]: induce significant TSLP transcription; TSLP levels in the culture supernatants (Luminex) ([1]; MDA-MB231 cells, different doses, 48 hours): induce TSLP production in a dose-dependent manner

With `COc1cc(O)c2c(c1)/C=C/C[C@H](O)[C@H](O)C(=O)/C=C\C[C@H](C)OC2=O` [TAK1 inhibitor, 5z-7-oxozeaenol] as the molecule, how does the “activation of caspase-1 in monocytes” value [2] read?
Its value is “prevented the activation of caspase-1”.

And the “IL-1β levels in co-culture supernatants (Luminex)” value ([3]; cancer cells with monocytes, MDDC or mDC, 48 hours)?
Its value is “Substantially lower amounts of IL-1β were secreted”.

And the “expression of IL-1β by mDCs and monocytes (intracellular staining)” value ([3]; co-culture 16 hours)?
Its value is “prevented the expression of IL-1β by mDCs and monocytes”.

With Cbz-WEHD-CH2F [caspase-1 inhibitor] as the molecule, how does the “percentage of proIL-1β+ cells within HLA-DR+ cells” value ([4]; 1 uM caspase-1 inhibitor, MDA-MB231 cells and mDCs co-cultured 18 hours) read?
Its value is about 95%.

And the “mature IL-1β staining” value ([4]; caspase-1 inhibitor, MDA-MB231 cells and mDCs co-culture)?
The value was “less mature IL-1β was detected”.

Which “CD4^+CD3^+T cells expressing IL-13” value [5, 10] does the source give for “Anakinra: recombinant soluble non-glycosylated homolog of the human interleukin-1 receptor antagonist (IL-1Ra)” here?
Its value is 0.39-2.5%.

And the “effect on TNF-α and IFN-γ in CD4^+CD3^+T cells” value [5, 10]?
Its value is “no specific effect on TNF-α and IFN-γ”.

And the “iTh2 generation in vivo” value [5, 11]?
Its value is “blocks iTh2 generation in vivo”.

And the “tumor volume (mean)” value ([6]; day 16, Anakinra 2 mg/kg daily peritumoral since day 3)?
Its value is 13 mm^3.

And the “tumor volume increase in PBS group compared to the Anakinra group” value ([6]; end of the observation, day 16)?
Its value is about 10 fold.

What about the “OX40L+ expression on DCs” value ([6]; in vivo) of the same molecule?
Its value is “blocks OX40L+ expression on DCs”.

And the “tumor growth in vivo” value [6, 11]?
The value was “prevents tumor growth in vivo”.

And the “patients with remarkable clinical and hematological responses” value [7]?
The value was > 70 % of patients.

And the “most common adverse reaction” value [8]?
Its value is “injection site reaction”.

What about the safety profile [8] of the same molecule?
Its safety profile is “favorable safety profile”.

And the “IL-4 in tumor tissue culture sups” value [9]?
The value was “less IL-4”.

What about the “IL-13 in tumor tissue culture sups” value [9] of the same molecule?
The value was “less IL-13”.

And the “TSLP production in tumor tissue” value [9]?
The value was “less TSLP production”.

B1: IL-1α: cytokine obtained from R&D (protein, UniProt P01583 113-271, looked up)
Interleukin-1 alpha: SAPFSFLSNVKYNFMRIIKYEFILNDALNQSIIRANDQYLTAAALHNLDEAVKFDMGAYKSSKDDAKITVILRISKTQLYVTAQDEDQPVLLKEMPEIPKTITGSETNLLFFWETHGTKNYFTSVAHPNLFIATKQDYWVCLAGGPPSITDFQILENQA
For B1, which “TSLP mRNA level by quantitative real-time PCR” value [1] is on record?
Its value is “induce significant TSLP transcription”.
